Test results from patent publication US20080107623A1, “Inhibitors of Hepatitis C Virus” (Bristol-Myers Squibb Company, priority 2006, published 2008).
pEC50, pIC50: −log10 of the molar value.

How the values were obtained:
[1] = test system: HCV replicon (Renilla luciferase reporter) in HUH-7 cells; assay: HCV replicon luciferase reporter assay; format: cell-based, HCV strain 1b; conditions: Huh-7, 96 h, 4 days
Excerpt: As a secondary assay, EC50 determinations from the replicon FRET assay were confirmed in a replicon luciferase reporter assay. Utilization of a replicon luciferase reporter assay was first described by Krieger et al (Krieger N, Lohmann V, and Bartenschlager R, J. Virol. 75(10):4614-4624 (2001)). The replicon construct described for our FRET assay was modified by inserting cDNA encoding a humanized form of the Renilla luciferase gene and a linker sequence fused directly to the 3′-end of the luciferase gene. This insert was introduced into the replicon construct using an AscI restriction site located in core, directly upstream of the neomycin marker gene. The adaptive mutation at position 1179 (serine to isoleucine) was also introduced (Blight K J, Kolykhalov, A A, Rice, C M, Science 290(5498):1972-1974). […] Following 4 days in a 37° C./5% CO2 incubator, cells were analyzed for Renilla Luciferase activity using the Promega Dual-Glo Luciferase Assay System. […] Plates were read on a Packard TopCount NXT using a luminescence program.
The percentage inhibition was calculated using the formula below: % control=average luciferase signal in experimental wells (+compound) average luciferase signal in DMSO control wells (− compound)
The values were graphed and analyzed using XLfit to obtain the EC50 value.

[2] = biological target: T1, HCV NS3/4A protease complex, BMS strain (UniProt P27958, species not given/STRAIN_BMS); assay: FRET peptide assay to monitor HCV NS3/4A proteolytic activity (BMS strain); format: biochemical, HCV genotype 1a; conditions: NS3/4A BMS strain; read-out: IC50 Activity Range
T1 construct: said of H77 and J4L6S, not expressly of BMS; These are given for the H77 and J4L6S constructs only
T1 sequence (P27958 1027-1657, change not shown, one chain of several): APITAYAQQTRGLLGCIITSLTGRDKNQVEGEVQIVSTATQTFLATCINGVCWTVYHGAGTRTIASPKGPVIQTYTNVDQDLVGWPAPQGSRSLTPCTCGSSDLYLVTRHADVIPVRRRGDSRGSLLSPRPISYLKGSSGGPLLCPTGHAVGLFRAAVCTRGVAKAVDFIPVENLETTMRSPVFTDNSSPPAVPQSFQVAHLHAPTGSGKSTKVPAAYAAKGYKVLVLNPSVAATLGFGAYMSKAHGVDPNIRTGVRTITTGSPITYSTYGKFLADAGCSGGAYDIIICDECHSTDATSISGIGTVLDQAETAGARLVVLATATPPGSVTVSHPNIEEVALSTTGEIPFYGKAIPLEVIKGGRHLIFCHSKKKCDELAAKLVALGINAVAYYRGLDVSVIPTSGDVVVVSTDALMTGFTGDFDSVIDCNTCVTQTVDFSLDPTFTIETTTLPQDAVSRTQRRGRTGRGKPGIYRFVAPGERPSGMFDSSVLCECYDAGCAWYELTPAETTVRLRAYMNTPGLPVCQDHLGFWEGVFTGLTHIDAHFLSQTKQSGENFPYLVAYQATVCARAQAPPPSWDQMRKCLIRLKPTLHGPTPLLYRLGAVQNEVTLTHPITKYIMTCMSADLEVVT
Excerpt: HCV NS3 protease complexes, derived from the BMS strain, H77 strain or J4L6S strain, were generated, as described below. These purified recombinant proteins were generated for use in a homogeneous assay (see below) to provide an indication of how effective compounds of the present disclosure would be in inhibiting HCV NS3 proteolytic activity.
Serum from an HCV-infected patient was obtained from Dr. T. Wright, San Francisco Hospital. An engineered full-length cDNA (compliment deoxyribonucleic acid) template of the HCV genome (BMS strain) was constructed from DNA fragments obtained by reverse transcription-PCR (RT-PCR) of serum RNA (ribonucleic acid) and using primers selected on the basis of homology between other genotype 1a strains. From the determination of the entire genome sequence, a genotype 1a was assigned to the HCV isolate according to the classification of Simmonds et al. (See P Simmonds, K A Rose, S Graham, S W Chan, F McOmish, B C Dow, E A Follett, P L Yap and H Marsden, J. Clin. Microbiol., 31(6), 1493-1503 (1993)). […] The infectious clones, H77 (1a genotype) and J4L6S (1b genotype) were obtained from R. Purcell (NIH) and the sequences are published in Genbank (AAB67036, see Yanagi, M., Purcell, R. H., Emerson, S. U. and Bukh, J. Proc. Natl. Acad. Sci. U.S.A. 94(16),8738-8743 (1997); AF054247, see Yanagi, M., St Claire, M., Shapiro, M., Emerson, S. U., Purcell, R. H. and Bukh, J, Virology 244 (1), 161-172. (1998)).
NS3/4A protease complex-containing fractions were pooled and loaded on a desalting column Superdex-S200 pre-equilibrated with buffer D (25 mM HEPES, pH 7.5, 20% glycerol, 300 mM NaCl, 0.2% Triton X-100, 10 mM βME). Sample was loaded at a flow rate of 1 mL/min. NS3/4A protease complex-containing fractions were pooled and concentrated to approximately 0.5 mg/ml. The purity of the NS3/4A protease complexes, derived from the BMS, H77 and J4L6S strains, were judged to be greater than 90% by SDS-PAGE and mass spectrometry analyses. The enzyme was stored at −80° C., thawed on ice and diluted prior to use in assay buffer.
The purpose of this in vitro assay was to measure the inhibition of HCV NS3 protease complexes, derived from the BMS strain, H77 strain or J4L6S strain, as described above, by compounds of the present disclosure. This assay provides an indication of how effective compounds of the present disclosure would be in inhibiting HCV NS3 proteolytic activity.
In order to monitor HCV NS3/4A protease activity, an NS3/4A peptide substrate was used. The substrate was RET SI (Resonance Energy Transfer Depsipeptide Substrate; AnaSpec, Inc. cat #22991) (FRET peptide), described by Taliani et al. in Anal. Biochem. 240(2):60-67 (1996). […] The peptide also contains a fluorescence donor, EDANS, near one end of the peptide and an acceptor, DABCYL, near the other end. The fluorescence of the peptide is quenched by […] resonance energy transfer (RET) between the donor and the acceptor, but as the NS3 protease cleaves the peptide the products are released from RET quenching and the fluorescence of the donor becomes apparent.
The peptide substrate was incubated with one of the three recombinant NS3/4A protease complexes, in the absence or presence of a compound of the present disclosure. The inhibitory effects of a compound was determined by monitoring the formation of fluorescent reaction product in real time using a Cytofluor Series 4000. […]

COc1c(O[C@@H]2C[C@H]3C(=O)N[C@]4(C(=O)NS(=O)(=O)C5CC5)C[C@H]4/C=C\CCCCC[C@H](NC(=O)OC(C)(C)C)C(=O)N3C2)ccc2c(Cl)nccc12 [Compound 3]
pEC50 [1]: 8.26 | pIC50 [2]: > 7.00
